Test results as given in US20040023884A1, “Biologically active peptides from functional domains of bactericidal/permeability-increasing protein and uses thereof” (priority 1993, published 2004).
pKd: −log10 of the molar value. Ends that are not written are not given here.

What was measured:
[1] = test system: rough mutant E. coli J5 bacteria; experiment: Radial diffusion bactericidal assay, E. coli J5; type: cell-based; details: radial diffusion; for pmol added to well to achieve a 30 mm^2 bactericidal zone, E. coli J5: PROBIT analysis, E. coli J5 (rough); for bactericidal activity (in words): E. coli J5
Outline: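 Wells received 5 or 10 μL of BPI fragment, pre-incubated 3 h at 37 °C. The underlayer agarose carried washed log-phase organisms at 4×10^6 CFU/mL.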

[2] = 3H-heparin binding assay (affinity and capacity); details: for Heparin Capacity: heparin bound at saturation; for pKd: read-out: Heparin Affinity
Outline: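 Peptide fragments were bound to PVDF-membrane wells and incubated with 3H-heparin in blocking buffer for 1 h at 4 °C. After washing, bound radioactivity was quantified by liquid scintillation counting, with BSA background subtracted; rBPI23 served as positive control.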

[3] = test system: E. coli 0111:B4 (smooth) bacteria; experiment: Radial diffusion bactericidal assay, E. coli 0111:B4; type: cell-based; details: radial diffusion; for pmol added to well to achieve a 30 mm^2 bactericidal zone, E. coli O111:B4: PROBIT analysis, E. coli O111:B4 (smooth); for bactericidal activity (in words): E. coli 0111:B4
Staphylococcus aureus = experiment: Radial diffusion bactericidal assay, Staphylococcus aureus; type: cell-based; details: radial diffusion; PROBIT analysis; S. aureus
RAW 264.7 cells = experiment: LPS neutralization cellular proliferation assay, RAW 264.7 cells; type: cell-based, mouse
Outline: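 Mouse RAW 264.7 cells were primed 24 h with 50U/mL mouse γ-interferon, then exposed about 15 h to E. coli O113 LPS in serum-free RPMI with or without BPI peptides at 25 ng/mL–50 μg/mL. Proliferation was quantified by [^3H]-thymidine uptake, 1 μCi/well, added at 5 h.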

[4] = test system: multi-resistant strain E. coli 19536; experiment: Radial diffusion bactericidal assay, multi-antibiotic resistant E. coli 19536; type: cell-based
Protocol: (§1) These studies were conducted substantially following the procedures used in Example 2.
In order to test the bactericidal activity of BPI peptides against multi-antibiotic resistant E. coli, a multi-resistant strain E. coli 19536 (ampR 16 μg/mL; ceftazidimeR>16 μg/mL; ceftriazoneR>16 μg/mL) was tested. This strain is a clinical isolate obtained from the Baxter Microscan® library (Sacramento, Calif.). An overnight culture of E. coli 19536 was tested as described in Example 2 and part A above. Test BPI peptides were 2-fold serially diluted in D-PBS starting at about 1 mg/mL.

C. albicans = experiment: Radial diffusion fungicidal assay, Candida albicans; type: cell-based; details: radial diffusion
[5] = test system: Klebsiella pneumoniae 19645; experiment: Radial diffusion bactericidal assay, antibiotic resistant Klebsiella pneumoniae 19645; type: cell-based
Protocol: as §1
In order to test the bactericidal activity of BPI peptides on antibiotic resistant strains of Klebsiella pneumoniae, the multi-resistant clinically isolated strain 19645 was tested as in Example 2 and above. […] This strain was obtained from the Baxter Microscan® library (Sacramento, Calif.). An overnight culture of Klebsiella pneumoniae 19645 and a non-resistant strain (ATCC 29011) were diluted 1:50 into fresh tryptic soy broth and incubated for 3 hours at 37° C. to attain log phase. The overnight cultures were tested as described in Example 2 and part A above.

[6] = LPS binding by tryptophan fluorescence quenching
Source text: (§2) The naturally-occurring amino acid tryptophan can emit light (i.e., it fluoresces) having a wavelength between 300 and 400 nm after excitation with light having a wavelength of between about 280 nm and 290 nm, preferably 285 nm. The amount of emitted light produced by such fluorescence is known to be affected by the local environment, including pH and buffer conditions, as well as binding interactions between proteins and other molecules. Some BPI functional domain peptides derived from domains II and III contain tryptophan residues, and tryptophan fluorescence was used to assay binding interactions between the BPI functional domain peptides of the invention and LPS or heparin.
(§3) Tryptophan fluorescence of the BPI functional domain peptides of the invention was determined in the presence or absence of LPS or heparin using a SPEX Fluorolog fluorimeter. Samples were excited with 285 nm light using a 0.25 nm slitwidth. Emission wavelengths were scanned between 300-400 nm using a 1.25 nm slitwidth. Data were accumulated as the average of three determinations performed over an approximately 5 min time span. Samples were maintained at 25° C. or 37° C. during the course of the experiments using a circulating water bath. Crab endotoxin binding protein (CEBP), a protein wherein the intrinsic fluorescence of tryptophan residues is affected by binding to LPS, was used as a positive control. (See Wainwright et al., 1990, Cellular and Molecular Aspects of Endotoxin Reactions, Nowotny et al., eds., Elsevier Science Publishing B.V., The Netherlands, pp. 315-325).
(§4) Kd values were determined by Scatchard-type Stern-Volmer plots of the quenching data as the negative inverse of the slope of such plots. Comparing the data for BPI.10, BPI.46 and BPI.47, it is seen that as the Kd decreased (indicating an increase in avidity for LPS), the percent fluorescence quenching increased. The differences between these peptides include replacement of basic and polar amino acid residues with non-polar residues in […] as compared with BPI.10. In contrast, as the Kd of heparin binding decreased, a corresponding increase in the percentage of fluorescence quenching was not detected.

[7] = Heparin binding by tryptophan fluorescence quenching
Source text: as §2, §3, §4

E. coli J5 (rough) = experiment: Broth antibacterial assay, E. coli J5; type: cell-based
Protocol: (§5) In additional experiments, broth antibacterial assays were conducted to further determine the bactericidal activity of certain of the BPI peptides. Specifically, either E. coli J5 (rough) or E. coli 0111:B4 (smooth) bacteria were selected from single colonies on agar plates and used to inoculate 5 mL of Mueller Hinton broth and incubated overnight at 37° C. with shaking. The overnight culture was diluted (˜1:50) into 5 mL fresh broth and incubated at 37° C. to log phase (˜3 hours). Bacteria were pelleted for 5 minutes at 3000 rpm (1500×g). Bacterial pellets were resuspended in 5 mL PBS and diluted to 2×10^6 cells/mL in the Mueller Hinton broth (wherein 1 OD570 unit equals 1.25×10^9 CFU/mL). The BPI functional domain peptides to be tested were diluted to 200 μg/mL in broth and serially diluted 2-fold in 96 well culture plates (100 μL volume). All items were at 2-fold final concentration and experiments were conducted in triplicate. Bacteria were added at 100 μL/well and the plates were incubated on a shaker at 37° C. for a 20 hour period. The plates were then read on an ELISA plate multiple reader at 590 nm. One of the triplicate wells from each peptide concentration was selected for colony forming unit (CFU) determination. A 30 μL aliquot was added to 270 μL of PBS and further ten-fold serial dilutions were performed. Then a 50 μL aliquot was plated on tryptic soy agar and incubated overnight. Colonies were counted and final bacterial concentrations determined. The results of these assays are depicted in FIGS. 9e (for E. coli J5) and 9f (for E. coli 0111:B4).

E. coli 0111:B4 (smooth) = experiment: Broth antibacterial assay, E. coli 0111:B4; type: cell-based
Protocol: as §5

Sequence | pmol added to well to achieve a 30 mm^2 bactericidal zone, E. coli J5 [1] [pmol] | Heparin Capacity [2] [ng] | pKd [2] | pmol added to well to achieve a 30 mm^2 bactericidal zone, E. coli O111:B4 [3] | pmol added to well to achieve a 30 mm^2 bactericidal zone, S. aureus (Staphylococcus aureus) | EC50 (peptide concentration at which the growth inhibitory effect of LPS was reversed by 50%) (RAW 264.7 cells) [µg/mL] | IC50 (peptide concentration at which RAW cell growth was inhibited by 50%) (RAW 264.7 cells) [µg/mL] | bactericidal activity (in words) [4] | bactericidal activity (in words) [1] | heparin binding capacity (in words) [2] | C. albicans: pmol required for 30 mm^2 zone (C. albicans) [pmol] | bactericidal activity (in words) [5] | Quenching LPS [6] [%] | pKd ([6]; Stern-Volmer plots) | Quenching Heparin [7] [%] | pKd ([7]; Stern-Volmer plots) | bactericidal activity (in words) [3] | bactericidal activity (in words) (E. coli J5 (rough)) | bactericidal activity (in words) (E. coli 0111:B4 (smooth))
IKISGKWKAFFRFLK [BPI.88] | 70.32 | 352.8 | 5.79 | 540.15 pmol | 9,051.04 pmol | >50 | 6.2 ± 7.5 | activity against multi-antibiotic resistant E. coli | – | – | – | – | – | – | – | – | – | – | –
IKISGKWKAQKRFLKKSKVGWLIQLFHKK [BPI.63] | 86.94 | 305.1 | 6.22 | 511.61 pmol | 2,101.84 pmol | 0.08 ± 0.02 | 7.1 ± 0.02 | activity against multi-antibiotic resistant E. coli | highly bactericidal | extremely high heparin capacity | >1006.34 | active against antibiotic resistant Klebsiella | – | – | – | – | – | – | –
KWKAAARFLKKWKAAARFLKKWKAAARFLK [BPI.69] | 56.68 | 450.8 | 6.01 | 244.07 pmol | 1,057.56 pmol | 0.11 ± 0.07 | 2.4 ± 0.3 | activity against multi-antibiotic resistant E. coli | highly bactericidal | extremely high heparin capacity | – | active against antibiotic resistant Klebsiella | 72 | 7.24 | 42 | 6.40 | – | – | –
QKRFLKKWKAQKRFLKKWKAQKRFLK [BPI.10.2] | – | – | – | – | – | – | – | – | exhibited bactericidal activity | – | – | – | – | – | – | – | exhibited bactericidal activity | significant bactericidal activity | significant bactericidal activity
KRFLKKWKAQKRFLK [BPI.9] | 476.60 | 212.5 | 5.94 | 5,337.50 pmol | – | – | – | – | exhibited bactericidal activity | – | – | – | – | – | – | – | exhibited bactericidal activity | significant bactericidal activity | significant bactericidal activity
KRFLKKWKAQKRFLKKWKAQKRFLK [BPI.10.1] | – | – | – | – | – | – | – | – | exhibited bactericidal activity | – | – | – | – | – | – | – | exhibited bactericidal activity | significant bactericidal activity | significant bactericidal activity
